The values below come from PubChem BioAssay AID248 (DTP/NCI, 2004).

Where “and” joins values, the source holds several entries; their conditions need not be identical. Equal values may be shown once. Inconclusive results and toxic doses are left out.

For the assay, the system named is L1210 leukemia ip in BDF1 mice, survival T/C. In words: NCI In Vivo Anticancer Drug Screen. Data for tumor model L1210 Leukemia (intraperitoneal) in B6D2F1 (BDF1) mice. Particulars: endpoint: mean survival time, higher = longer survival. The method, boiled down: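 Transplantable tumor model; survival measured in treated vs vehicle control mice. Value = treated/control.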

Where [1] appears, read: dose: 100.0 mg/kg/injection, schedule: Q04DX002 (ip), vehicle: saline.
Where [2] appears, read: dose: 200.0 mg/kg/injection, schedule: Q04DX002 (ip), vehicle: saline.
The mark [3] stands for this setting: dose: 400.0 mg/kg/injection, schedule: Q04DX002 (ip), vehicle: saline.
[4] abbreviates: dose: 100.0 mg/kg/injection, schedule: Q01DX009 (ip), vehicle: Klucel (hydroxypropylcellulose) (HPC).
The mark [5] stands for this setting: dose: 50.0 mg/kg/injection, schedule: Q01DX009 (ip), vehicle: saline.
The mark [6] stands for this setting: dose: 100.0 mg/kg/injection, schedule: Q01DX009 (ip), vehicle: saline.
Where [7] appears, read: dose: 100.0 mg/kg/injection, schedule: Q04DX003 (ip), vehicle: saline.
Where [8] appears, read: dose: 200.0 mg/kg/injection, schedule: Q01DX009 (ip), vehicle: saline.
The mark [9] stands for this setting: dose: 200.0 mg/kg/injection, schedule: Q04DX003 (ip), vehicle: saline.
The mark [10] stands for this setting: dose: 400.0 mg/kg/injection, schedule: Q01DX009 (ip), vehicle: saline.
[11] abbreviates: dose: 400.0 mg/kg/injection, schedule: Q04DX003 (ip), vehicle: saline.
The mark [12] stands for this setting: dose: 50.0 mg/kg/injection, schedule: Q01DX009 (ip), vehicle: Klucel (hydroxypropylcellulose) (HPC).

As to `O=C1C(NCC(O)CO)=C(N2CC2)C(=O)C(NCC(O)CO)=C1N1CC1` (stereo not given), the T/C (dose: 0.12 mg/kg/injection, schedule: Q04DX003 (ip), vehicle: saline) was 106 % of control; the T/C (dose: 0.25 mg/kg/injection, schedule: Q01DX009 (ip), vehicle: saline) was 119 % of control and 120 % of control; the T/C (dose: 0.25 mg/kg/injection, schedule: Q04DX003 (ip), vehicle: saline) was 106 % of control; the T/C (dose: 0.5 mg/kg/injection, schedule: Q01DX009 (ip), vehicle: saline) was 120 % of control and 121 % of control; the T/C (dose: 0.5 mg/kg/injection, schedule: Q04DX003 (ip), vehicle: saline) was 112 % of control; the T/C (dose: 1.0 mg/kg/injection, schedule: Q01DX009 (ip), vehicle: saline) was 156 % of control. Further, the T/C (dose: 1.0 mg/kg/injection, schedule: Q04DX003 (ip), vehicle: saline) is 104 % of control; the T/C (dose: 2.0 mg/kg/injection, schedule: Q01DX001 (ip), vehicle: saline) is 189 % of control; the T/C (dose: 2.0 mg/kg/injection, schedule: Q01DX009 (ip), vehicle: saline) is 216 % of control and 233 % of control; the T/C (dose: 2.0 mg/kg/injection, schedule: Q04DX003 (ip), vehicle: saline) is 161 % of control; the T/C (dose: 4.0 mg/kg/injection, schedule: Q01DX001 (ip), vehicle: saline) is 153 % of control; the T/C (dose: 4.0 mg/kg/injection, schedule: Q01DX009 (ip), vehicle: saline) is 199 % of control and 306 % of control. The T/C (dose: 4.0 mg/kg/injection, schedule: Q04DX003 (ip), vehicle: saline) is 173 % of control and 190 % of control; the T/C (dose: 8.0 mg/kg/injection, schedule: Q01DX009 (ip), vehicle: saline) was 98 % of control and 102 % of control; the T/C (dose: 8.0 mg/kg/injection, schedule: Q04DX003 (ip), vehicle: saline) was 179 % of control.
With `O=C(Nc1ccc(Cl)c(Cl)c1)c1ccc(Cl)c(Cl)c1`, the T/C was 94 % of control (dose: 50.0 mg/kg/injection, schedule: Q04DX002 (ip), vehicle: saline with Tween-80); 91 % of control (dose: 100.0 mg/kg/injection, schedule: Q04DX002 (ip), vehicle: saline with Tween-80); 91 % of control (dose: 200.0 mg/kg/injection, schedule: Q04DX002 (ip), vehicle: saline with Tween-80).
For the compound `CCCCCCC(=O)N1C(C)CCCC1C` (stereo not given), the T/C was 107 % of control under setting [1], 103 % of control under setting [2] and 92 % of control under setting [3].
For the compound `O=C1OC(c2cccc([N+](=O)[O-])c2)=N/C1=C\c1cccc2ccccc12`, the T/C runs as follows: under setting [4], 94 % of control; under setting [1], 96 % of control; (dose: 200.0 mg/kg/injection, schedule: Q01DX009 (ip), vehicle: Klucel (hydroxypropylcellulose) (HPC)) 105 % of control; under setting [2], 101 % of control; (dose: 400.0 mg/kg/injection, schedule: Q01DX009 (ip), vehicle: Klucel (hydroxypropylcellulose) (HPC)) 97 % of control; under setting [3], 94 % of control.
As for `CN(C)c1ccc(CNc2cccc([N+](=O)[O-])c2)cc1`, the T/C by setting is: (dose: 100.0 mg/kg/injection, schedule: Q01DX001 (ip), vehicle: saline with Tween-80) 96 % of control; (dose: 200.0 mg/kg/injection, schedule: Q01DX001 (ip), vehicle: saline with Tween-80) 90 % of control; (dose: 400.0 mg/kg/injection, schedule: Q01DX001 (ip), vehicle: saline with Tween-80) 95 % of control.
As to `Cc1cc([N+](=O)[O-])c2ccccc2[n+]1[O-]`, the T/C (dose: 25.0 mg/kg/injection, schedule: Q01DX009 (ip), vehicle: saline with Tween-80) is 96 % of control.
With `Cc1ccc(N2C(N)=NC(N)=NC2(C)C)cc1`, the T/C is, setting by setting: (dose: 12.5 mg/kg/injection, schedule: Q01DX001 (ip), vehicle: saline) 100 % of control; (dose: 25.0 mg/kg/injection, schedule: Q01DX001 (ip), vehicle: saline) 100 % of control.
On to `Cc1cccc(/C=N/N(C)C(N)=S)n1`, for which the T/C is, setting by setting: (dose: 100.0 mg/kg/injection, schedule: Q01DX001 (ip), vehicle: carboxymethylcellulose (CMC)) 102 % of control; (dose: 200.0 mg/kg/injection, schedule: Q01DX001 (ip), vehicle: carboxymethylcellulose (CMC)) 106 % of control.
`Cc1ccc(N=Nc2ccc(C)cc2NC(=O)Nc2cc([N+](=O)[O-])ccc2C)cc1`: the T/C is 92 % of control (dose: 100.0 mg/kg/injection, schedule: Q04DX002 (ip), vehicle: Klucel (hydroxypropylcellulose) (HPC)); 101 % of control (dose: 200.0 mg/kg/injection, schedule: Q04DX002 (ip), vehicle: Klucel (hydroxypropylcellulose) (HPC)); 111 % of control (dose: 400.0 mg/kg/injection, schedule: Q04DX002 (ip), vehicle: Klucel (hydroxypropylcellulose) (HPC)).
`BrCc1nc2ccccc2[nH]1`: the T/C reads like this: (dose: 100.0 mg/kg/injection, schedule: Q01DX001 (ip), vehicle: saline) 95 % of control; (dose: 200.0 mg/kg/injection, schedule: Q01DX001 (ip), vehicle: saline) 101 % of control; (dose: 400.0 mg/kg/injection, schedule: Q01DX001 (ip), vehicle: saline) 107 % of control.
Take `O=C(CCN1CCC2CCC(C2)C1)c1ccccc1C(F)(F)F` (stereo not given): the T/C (dose: 50.0 mg/kg/injection, schedule: Q01DX001 (ip), vehicle: carboxymethylcellulose (CMC)) is 101 % of control.
Turning to `CCOC(=O)N(Cc1ccccc1)C1CC1`, the T/C reads like this: (dose: 25.0 mg/kg/injection, schedule: Q01DX009 (ip), vehicle: saline) 95 % of control; (dose: 25.0 mg/kg/injection, schedule: Q04DX003 (ip), vehicle: saline) 104 % of control; under setting [5], 104 % of control; under setting [6], 102 % of control; under setting [7], 104 % of control; under setting [8], 98 % of control. Further, the T/C is 104 % of control under setting [9], 103 % of control under setting [10] and 102 % of control under setting [11].
With `CCN(CC)CCCC#CCN1CCOCC1`, the T/C under setting [5] is 101 % of control; the T/C under setting [6] was 93 % of control; the T/C under setting [7] is 103 % of control; the T/C under setting [8] is 93 % of control; the T/C under setting [9] is 109 % of control.
Regarding `C=C1C(=O)OC2C1C(OC(=O)/C(C)=C/COC(C)=O)CC1(CO1)C1C(O)C=C(C)C21` (stereo not given), the T/C (dose: 12.5 mg/kg/injection, schedule: Q01DX009 (ip), vehicle: alcohol) is 103 % of control; the T/C (dose: 25.0 mg/kg/injection, schedule: Q01DX009 (ip), vehicle: alcohol) is 105 % of control; the T/C (dose: 50.0 mg/kg/injection, schedule: Q01DX009 (ip), vehicle: alcohol) was 105 % of control and 107 % of control.
As for `CCCCCCCCCCCCCCC(F)C(=O)O` (stereo not given), the T/C by setting is: under setting [12], 96 % of control; under setting [4], 101 % of control; (dose: 100.0 mg/kg/injection, schedule: Q04DX003 (ip), vehicle: Klucel (hydroxypropylcellulose) (HPC)) 92 % of control; (dose: 200.0 mg/kg/injection, schedule: Q04DX003 (ip), vehicle: Klucel (hydroxypropylcellulose) (HPC)) 91 % of control.
With `OC(Cc1cncc(CC(O)(C(F)(F)F)C(F)(F)F)n1)(C(F)(F)F)C(F)(F)F`, the T/C is 95 % of control under setting [6]; 96 % of control under setting [7]; 105 % of control under setting [8]; 92 % of control under setting [9]; 98 % of control under setting [10]; 97 % of control under setting [11].
`O=C(CNC(c1ccccc1)(c1ccccc1)c1ccccc1)OC(c1ccccc1)c1ccccc1`: the T/C runs as follows: (dose: 100.0 mg/kg/injection, schedule: Q01DX009 (ip), vehicle: saline with Tween-80) 86 % of control; (dose: 100.0 mg/kg/injection, schedule: Q04DX003 (ip), vehicle: saline sonified) 106 % of control; (dose: 200.0 mg/kg/injection, schedule: Q01DX009 (ip), vehicle: saline with Tween-80) 89 % of control; (dose: 200.0 mg/kg/injection, schedule: Q04DX003 (ip), vehicle: saline sonified) 92 % of control; (dose: 400.0 mg/kg/injection, schedule: Q04DX003 (ip), vehicle: saline sonified) 97 % of control.
Consider `S=C(NCN1CCNCC1)C(=S)NCN1CCNCC1`, for which the T/C by setting is: (dose: 12.5 mg/kg/injection, schedule: Q01DX009 (ip), vehicle: Klucel (hydroxypropylcellulose) (HPC)) 97 % of control; (dose: 25.0 mg/kg/injection, schedule: Q01DX009 (ip), vehicle: Klucel (hydroxypropylcellulose) (HPC)) 100 % of control; under setting [12], 93 % of control.
For the compound `O=C1CCC2(C/C1=N\Nc1ccccc1)OCCO2`, the T/C is 100 % of control under setting [7], 96 % of control under setting [9] and 100 % of control under setting [11].
